Data: patent US11229599B2, “Implant compositions for the unidirectional delivery of therapeutic compounds to the brain” (Board of Regents, the University of Texas System, priority 2015, dated 2022)

Assay: Differential scanning calorimetry, physical state of APAP in glycerol behenate
Format: physicochemical
Conditions: FIG. 6; 5% APAP+95% glycerol behenate, physical blend and melt mix
Method: Differential scanning calorimetry testing was performed using a TA Thermal Analyzer (Model DSC Q20, TA Instruments, New Castle, Del., US). The temperature was calibrated with an indium standard. Sample size was about 5 mg and a temperature ramp of 10° C. per minute was used. Universal Analysis 2000 data analysis software was used for data analysis. Inflection point method was used for the analysis of the glass transition temperature. The melting temperature is defined as the intersection of the extension of the baseline with the tangent at the inflection point of the curve.

In the case of `CC(=O)Nc1ccc(O)cc1` [APAP, acetaminophen], the “physical state of APAP in glycerol behenate” value is reported as “dispersed as crystalline particles”.
